The NIST ThermoML archive (doi:10.1021/je500380x)
± gives the expanded uncertainty stated by the source.

Test: mn = molality of the nth substance listed, in mol/kg
Details: 100 kPa, Liquid; for electrical conductivity: Alternating current cell with electrodes; for viscosity: Falling or rolling sphere viscometry; for mass density: Vibrating tube method

CCC(=O)OCCN1CCNCC1 [2-(piperazin-1-yl)ethyl propionate] + CO
Details	electrical conductivity [S/m]	mass density [kg/m3]	viscosity [mPa·s]
293.15 K, m1 = 0.05	0.128 ± 0.0013	794.44 ± 0.15	0.613 ± 0.008
293.15 K, m1 = 0.1001	0.211 ± 0.002	797.52 ± 0.15	0.632 ± 0.008
293.15 K, m1 = 0.2006	0.339 ± 0.003	803.64 ± 0.15	0.675 ± 0.008
293.15 K, m1 = 0.3003	0.432 ± 0.004	809.65 ± 0.15	0.72 ± 0.009
293.15 K, m1 = 0.3995	0.506 ± 0.005	815.7 ± 0.15	0.771 ± 0.01
293.15 K, m1 = 0.5005	0.566 ± 0.006	821.73 ± 0.15	0.828 ± 0.01
293.15 K, m1 = 0.6006	0.617 ± 0.006	827.94 ± 0.14	0.89 ± 0.011
293.15 K, m1 = 0.7007	0.657 ± 0.007	834.12 ± 0.14	0.954 ± 0.012
293.15 K, m1 = 0.8007	0.688 ± 0.007	840.22 ± 0.14	1.033 ± 0.013
293.15 K, m1 = 0.9008	0.712 ± 0.007	846.35 ± 0.14	1.118 ± 0.014
293.15 K, m1 = 1.001	0.732 ± 0.007	852.36 ± 0.14	1.219 ± 0.015
293.15 K, m1 = 1.2	0.757 ± 0.008	864.62 ± 0.14	1.426 ± 0.018
293.15 K, m1 = 1.401	0.752 ± 0.008	877.59 ± 0.13	1.719 ± 0.021
293.15 K, m1 = 1.6	0.737 ± 0.007	890.02 ± 0.13	2.09 ± 0.026
293.15 K, m1 = 1.801	0.706 ± 0.007	903.1 ± 0.13	2.581 ± 0.032
293.15 K, m1 = 2	0.656 ± 0.007	916.07 ± 0.13	3.261 ± 0.04
293.15 K, m1 = 2.203	0.605 ± 0.006	929.95 ± 0.12	4.138 ± 0.051
293.15 K, m1 = 2.403	0.542 ± 0.005	942.83 ± 0.12	5.479 ± 0.068
293.15 K, m1 = 2.603	0.479 ± 0.005	955.65 ± 0.12	7.28 ± 0.09
293.15 K, m1 = 2.803	0.409 ± 0.004	969.71 ± 0.12	9.916 ± 0.12
293.15 K, m1 = 3.001	–	982.22 ± 0.11	14.36 ± 0.18
293.15 K, m1 = 3.006	0.342 ± 0.003	–	–
298.15 K, m1 = 0.05	0.132 ± 0.0014	789.75 ± 0.15	0.576 ± 0.007
298.15 K, m1 = 0.1001	0.218 ± 0.002	792.84 ± 0.15	0.592 ± 0.007
298.15 K, m1 = 0.2006	0.351 ± 0.004	798.96 ± 0.15	0.629 ± 0.008
298.15 K, m1 = 0.3003	0.448 ± 0.005	805.01 ± 0.15	0.671 ± 0.008
298.15 K, m1 = 0.3995	0.525 ± 0.005	811.06 ± 0.15	0.716 ± 0.009
298.15 K, m1 = 0.5005	0.59 ± 0.006	817.14 ± 0.15	0.767 ± 0.01
298.15 K, m1 = 0.6006	0.644 ± 0.006	823.36 ± 0.14	0.823 ± 0.01
298.15 K, m1 = 0.7007	0.686 ± 0.007	829.58 ± 0.14	0.881 ± 0.011
298.15 K, m1 = 0.8007	0.72 ± 0.007	835.68 ± 0.14	0.952 ± 0.012
298.15 K, m1 = 0.9008	0.748 ± 0.008	841.84 ± 0.14	1.029 ± 0.013
298.15 K, m1 = 1.001	0.77 ± 0.008	847.87 ± 0.14	1.117 ± 0.014
298.15 K, m1 = 1.2	0.794 ± 0.008	860.2 ± 0.14	1.303 ± 0.016
298.15 K, m1 = 1.401	0.797 ± 0.008	873.21 ± 0.13	1.562 ± 0.019
298.15 K, m1 = 1.6	0.784 ± 0.008	885.7 ± 0.13	1.888 ± 0.023
298.15 K, m1 = 1.801	0.755 ± 0.008	898.85 ± 0.13	2.319 ± 0.029
298.15 K, m1 = 2	0.708 ± 0.007	911.8 ± 0.13	2.909 ± 0.036
298.15 K, m1 = 2.203	0.653 ± 0.007	925.82 ± 0.12	3.661 ± 0.045
298.15 K, m1 = 2.403	0.587 ± 0.006	938.76 ± 0.12	4.801 ± 0.059
298.15 K, m1 = 2.603	0.518 ± 0.005	951.62 ± 0.12	6.312 ± 0.078
298.15 K, m1 = 2.803	0.457 ± 0.005	964.72 ± 0.12	8.495 ± 0.11
298.15 K, m1 = 3.001	–	978.3 ± 0.11	12.13 ± 0.15
298.15 K, m1 = 3.006	0.392 ± 0.004	–	–
303.15 K, m1 = 0.05	0.136 ± 0.0014	785.03 ± 0.15	0.542 ± 0.007
303.15 K, m1 = 0.1001	0.224 ± 0.002	788.13 ± 0.15	0.556 ± 0.007
303.15 K, m1 = 0.2006	0.362 ± 0.004	794.26 ± 0.15	0.589 ± 0.007
303.15 K, m1 = 0.3003	0.465 ± 0.005	800.33 ± 0.15	0.627 ± 0.008
303.15 K, m1 = 0.3995	0.547 ± 0.006	806.4 ± 0.15	0.668 ± 0.008
303.15 K, m1 = 0.5005	0.615 ± 0.006	812.5 ± 0.15	0.713 ± 0.009
303.15 K, m1 = 0.6006	0.672 ± 0.007	818.75 ± 0.15	0.764 ± 0.009
303.15 K, m1 = 0.7007	0.715 ± 0.007	824.99 ± 0.14	0.816 ± 0.01
303.15 K, m1 = 0.8007	0.756 ± 0.008	831.13 ± 0.14	0.881 ± 0.011
303.15 K, m1 = 0.9008	0.785 ± 0.008	837.3 ± 0.14	0.95 ± 0.012
303.15 K, m1 = 1.001	0.813 ± 0.008	843.36 ± 0.14	1.028 ± 0.013
303.15 K, m1 = 1.2	0.839 ± 0.008	855.75 ± 0.14	1.194 ± 0.015
303.15 K, m1 = 1.401	0.849 ± 0.009	868.82 ± 0.13	1.425 ± 0.018
303.15 K, m1 = 1.6	0.837 ± 0.008	881.35 ± 0.13	1.713 ± 0.021
303.15 K, m1 = 1.801	0.813 ± 0.008	894.62 ± 0.13	2.093 ± 0.026
303.15 K, m1 = 2	0.766 ± 0.008	907.8 ± 0.13	2.606 ± 0.032
303.15 K, m1 = 2.203	0.712 ± 0.007	921.66 ± 0.12	3.257 ± 0.04
303.15 K, m1 = 2.403	0.648 ± 0.007	934.65 ± 0.12	4.233 ± 0.052
303.15 K, m1 = 2.603	0.571 ± 0.006	947.56 ± 0.12	5.512 ± 0.068
303.15 K, m1 = 2.803	0.505 ± 0.005	960.73 ± 0.12	7.332 ± 0.091
303.15 K, m1 = 3.001	–	974.37 ± 0.12	10.32 ± 0.13
303.15 K, m1 = 3.006	0.439 ± 0.004	–	–
308.15 K, m1 = 0.05	0.139 ± 0.0014	–	0.512 ± 0.006
308.15 K, m1 = 0.1001	0.232 ± 0.002	–	0.523 ± 0.007
308.15 K, m1 = 0.2006	0.374 ± 0.004	–	0.554 ± 0.007
308.15 K, m1 = 0.3003	0.482 ± 0.005	–	0.588 ± 0.007
308.15 K, m1 = 0.3995	0.566 ± 0.006	–	0.625 ± 0.008
308.15 K, m1 = 0.5005	0.641 ± 0.006	–	0.665 ± 0.008
308.15 K, m1 = 0.6006	0.701 ± 0.007	–	0.711 ± 0.009
308.15 K, m1 = 0.7007	0.748 ± 0.008	–	0.758 ± 0.009
308.15 K, m1 = 0.8007	0.792 ± 0.008	–	0.817 ± 0.01
308.15 K, m1 = 0.9008	0.824 ± 0.008	–	0.879 ± 0.011
308.15 K, m1 = 1.001	0.858 ± 0.009	–	–
308.15 K, m1 = 1.2	0.883 ± 0.009	–	–
308.15 K, m1 = 1.401	0.892 ± 0.009	–	–
308.15 K, m1 = 1.6	0.889 ± 0.009	–	–
308.15 K, m1 = 1.801	0.862 ± 0.009	–	–
308.15 K, m1 = 2	0.818 ± 0.008	–	–
308.15 K, m1 = 2.203	0.766 ± 0.008	–	–
308.15 K, m1 = 2.403	0.703 ± 0.007	–	–
308.15 K, m1 = 2.603	0.626 ± 0.006	–	–
308.15 K, m1 = 2.803	0.559 ± 0.006	–	–
308.15 K, m1 = 3.006	0.483 ± 0.005	–	–
